Data: US20120101098A1, “3,28-DISUBSTITUTED BETULINIC ACID DERIVATIVES AS ANTI-HIV AGENTS” (priority 2009, published 2012)
Like-named read-outs stand apart in the source and are kept apart here.

Columns and labels:
mock-infected MT-2 cell [1] = test system: mock-infected MT-2 cell
Procedure: (§1) HIV-1IIIB Replication Inhibition Assay in MT-2 Lymphocytes. The evaluation of HIV-1 inhibition was carried out as follows. […] Control wells containing virus and cells only (no drug) and cells only (no virus or drug) were also prepared. A second identical set of samples were added to cells under the same conditions without virus (mock infection) for cytotoxicity determinations (CC50 defined below). […] On day 4 PI, the assay was terminated and culture supernatants were harvested for p24 antigen ELISA analysis. The compound cytotoxicity was determined by XTT using the mock-infected sample wells.

mock-infected MT-4 cell = assay: Cytotoxicity in mock-infected MT-4 cells; format: cell-based
HIV-1NL4-3 = HIV-1NL4-3 replication inhibition assay in MT-4 lymphocytes (p24 antigen ELISA); format: cell-based
Text: HIV-1NL4-3 Replication Inhibition Assay in MT-4 Lymphocytes. A previously described HIV-1 infectivity assay was used.^28,33 A 96-well microtiter plate was used to set up the HIV-1NL4-3 replication screening assay. NL4-3 variants at a multiplicity of infection (MOI) of 0.01 were used to infect MT4 cells. Culture supernatants were collected on day 4 post-infection for the p24 antigen capture using an ELISA kit from ZeptoMetrix Corporation (Buffalo, N.Y.).

mock-infected MT-2 cell [2] = assay: Cytotoxicity in mock-infected MT-2 cells (XTT); details: concentration that inhibits mock-infected MT-2 cell growth by 50%
Procedure: as §1

HIV-1IIIB = HIV-1IIIB replication inhibition assay in MT-2 lymphocytes (p24 antigen ELISA); format: cell-based; details: HIV-1IIIB infected MT-2 cell lines, concentration that inhibits HIV-1IIIB replication by 50%, NS: no suppression at concentrations below the CC50
Procedure: as §1

[3] = HIV-1NL4-3 infected MT-4 cell lines, concentration that inhibits HIV-1NL4-3 replication by 50%

Cc1cn([C@H]2C[C@H](N=[N+]=[N-])[C@@H](CO)O2)c(=O)[nH]c1=O [AZT, reference compound]
CC50 (mock-infected MT-2 cell [1]): 1870 µM

C=C(C)[C@@H]1CC[C@]2(C(=O)NCCCCCCCC(=O)N[C@@H](CC(C)C)[C@H](O)CC(=O)O)CC[C@]3(C)[C@H](CC[C@@H]4[C@@]5(C)CC[C@H](O)C(C)(C)[C@@H]5CC[C@]43C)[C@@H]12 [Compound 3b, IC9564, reference compound]
CC50 (mock-infected MT-4 cell): > 10 µM | EC50 (HIV-1NL4-3; [3]): 0.089 µM

C=C(C)[C@@H]1CC[C@]2(C(=O)NCCCCCCCNC(C)=O)CC[C@]3(C)[C@H](CC[C@@H]4[C@@]5(C)CC[C@H](O)C(C)(C)[C@@H]5CC[C@]43C)[C@@H]12 [Compound 4, A43-D, reference compound]
CC50 (mock-infected MT-4 cell): > 10 µM | EC50 (HIV-1NL4-3; [3]): 0.092 µM | EC50 (HIV-1NL4-3; value of prior best entry inhibitor 4 as given in text, unit inferred): 0.1 µM

C=C(COCC)[C@@H]1CC[C@]2(C(=O)N[C@@H](CC(C)C)C(=O)O)CC[C@]3(C)[C@H](CC[C@@H]4[C@@]5(C)CC[C@H](O)C(C)(C)[C@@H]5CC[C@]43C)[C@@H]12 [Compound 10, N-[3β-Hydroxy-30-ethoxy-lup-20(29)-en-28-oyl]-leucine]
CC50 (mock-infected MT-2 cell [2]): 40.7 µM | EC50 (HIV-1IIIB): > 16.7 µM

C=C(COCCC)[C@@H]1CC[C@]2(C(=O)N[C@@H](CC(C)C)C(=O)O)CC[C@]3(C)[C@H](CC[C@@H]4[C@@]5(C)CC[C@H](O)C(C)(C)[C@@H]5CC[C@]43C)[C@@H]12 [Compound 11, N-[3β-Hydroxy-30-propoxy-lup-20(29)-en-28-oyl]-leucine]
CC50 (mock-infected MT-2 cell [2]): 25.3 µM | EC50 (HIV-1IIIB): > 16.7 µM

C=C(COCCCC)[C@@H]1CC[C@]2(C(=O)N[C@@H](CC(C)C)C(=O)O)CC[C@]3(C)[C@H](CC[C@@H]4[C@@]5(C)CC[C@H](O)C(C)(C)[C@@H]5CC[C@]43C)[C@@H]12 [Compound 12, N-[3β-Hydroxy-30-butoxy-lup-20(29)-en-28-oyl]-leucine]
CC50 (mock-infected MT-2 cell [2]): 24.9 µM | EC50 (HIV-1IIIB): > 16.7 µM

C=C(COCCc1ccccc1)[C@@H]1CC[C@]2(C(=O)N[C@@H](CC(C)C)C(=O)O)CC[C@]3(C)[C@H](CC[C@@H]4[C@@]5(C)CC[C@H](O)C(C)(C)[C@@H]5CC[C@]43C)[C@@H]12 [Compound 13, N-[3β-Hydroxy-30-phenethoxy-lup-20(29)-en-28-oyl]-leucine]
CC50 (mock-infected MT-2 cell [2]): 21.7 µM | EC50 (HIV-1IIIB): > 16.7 µM

C=C(COCCc1ccc(OC)cc1)[C@@H]1CC[C@]2(C(=O)N[C@@H](CC(C)C)C(=O)O)CC[C@]3(C)[C@H](CC[C@@H]4[C@@]5(C)CC[C@H](O)C(C)(C)[C@@H]5CC[C@]43C)[C@@H]12 [Compound 14, N-[3β-Hydroxy-30-(4′-methoxyphenethoxy)-lup-20(29)-en-28-oyl]-leucine]
CC50 (mock-infected MT-2 cell [1]): 16.7 µM | EC50 (HIV-1IIIB): > 16.7 µM

C=C(COCCc1ccc(F)cc1)[C@@H]1CC[C@]2(C(=O)N[C@@H](CC(C)C)C(=O)O)CC[C@]3(C)[C@H](CC[C@@H]4[C@@]5(C)CC[C@H](O)C(C)(C)[C@@H]5CC[C@]43C)[C@H]12 [Compound 15, N-[3β-Hydroxy-30-(4% fluorophenethoxy)-lup-20(29)-en-28-oyl]-leucine]
CC50 (mock-infected MT-2 cell [1]): 24.4 µM | EC50 (HIV-1IIIB): > 16.7 µM

C=C(COCCc1ccc(Br)cc1)[C@@H]1CC[C@]2(C(=O)N[C@@H](CC(C)C)C(=O)O)CC[C@]3(C)[C@H](CC[C@@H]4[C@@]5(C)CC[C@H](O)C(C)(C)[C@@H]5CC[C@]43C)[C@@H]12 [Compound 16, N-[3β-Hydroxy-30-(4′-bromophenethoxy)-lup-20(29)-en-28-oyl]-leucine]
CC50 (mock-infected MT-2 cell [1]): 20.8 µM | EC50 (HIV-1IIIB): > 16.7 µM

C=C(COCCc1ccc(Cl)cc1)[C@@H]1CC[C@]2(C(=O)N[C@@H](CC(C)C)C(=O)O)CC[C@]3(C)[C@H](CC[C@@H]4[C@@]5(C)CC[C@H](O)C(C)(C)[C@@H]5CC[C@]43C)[C@@H]12 [Compound 17, N-[3β-Hydroxy-30-(4′-chlorophenethoxy)-lup-20(29)-en-28-oyl]-leucine]
CC50 (mock-infected MT-2 cell [1]): 34.6 µM | EC50 (HIV-1IIIB): 27.8 µM

C=C(CN1CCOCC1)C1CCC2(C(=O)NC(CC(C)C)C(=O)O)CCC3(C)C(CCC4C5(C)CCC(O)C(C)(C)C5CCC43C)C12 (stereo not drawn) [Compound 18, N-[3β-Hydroxy-30-morpholino-lup-20(29)-en-28-oyl]-leucine]
CC50 (mock-infected MT-2 cell [2]): 27.5 µM | EC50 (HIV-1IIIB): > 16.7 µM

C=C(COCCN1CCOCC1)[C@@H]1CC[C@]2(C(=O)N[C@@H](CC(C)C)C(=O)O)CC[C@]3(C)[C@H](CC[C@@H]4[C@@]5(C)CC[C@H](O)C(C)(C)[C@@H]5CC[C@]43C)[C@@H]12 [Compound 19, N-[3β-Hydroxy-30-(2′-morpholinoethoxy)-lup-20(29)-en-28-oyl]-leucine]
CC50 (mock-infected MT-2 cell [1]): 35.8 µM | EC50 (HIV-1IIIB): 26.6 µM

C=C(C)[C@@H]1CC[C@]2(C(=O)N[C@@H](CC(C)C)C(=O)O)CC[C@]3(C)[C@H](CC[C@@H]4[C@@]5(C)CC[C@H](O)C(C)(C)[C@@H]5CC[C@]43C)[C@@H]12 [Compound 22, N-[3β-Hydroxy-lup-20(29)-en-28-oyl]-leucine]
CC50 (mock-infected MT-2 cell [1]): 29.8 µM

C=C(CBr)[C@@H]1CC[C@]2(C(=O)N[C@@H](CC(C)C)C(=O)O)CC[C@]3(C)[C@H](CC[C@@H]4[C@@]5(C)CC[C@H](O)C(C)(C)[C@@H]5CC[C@]43C)[C@@H]12 [Compound 24, N-[3β-Hydroxy-30-bromo-lup-20(29)-en-28-oyl]-leucine]
CC50 (mock-infected MT-2 cell [2]): 26.8 µM | EC50 (HIV-1IIIB): > 16.7 µM

C=C(CBr)[C@@H]1CC[C@]2(C(=O)NCCCCCCCC(=O)O)CC[C@]3(C)[C@H](CC[C@@H]4[C@@]5(C)CC[C@H](O)C(C)(C)[C@@H]5CC[C@]43C)[C@@H]12 [Compound 25, N-[3β-Hydroxy-30-bromo-lup-20(29)-en-28-oyl]-8-aminooctanoic acid]
CC50 (mock-infected MT-2 cell [1]): 36.9 µM | EC50 (HIV-1IIIB): 2.3 µM

C=C(CO)[C@@H]1CC[C@]2(C(=O)N[C@@H](CC(C)C)C(=O)O)CC[C@]3(C)[C@H](CC[C@@H]4[C@@]5(C)CC[C@H](O)C(C)(C)[C@@H]5CC[C@]43C)[C@@H]12 [Compound 28, N-[3β,30-Dihydroxy-lup-20(29)-en-28-oyl]-leucine]
CC50 (mock-infected MT-2 cell [2]): 30.7 µM | EC50 (HIV-1IIIB): > 16.7 µM

C=C(CO)[C@@H]1CC[C@]2(C(=O)NCCCCCCCC(=O)O)CC[C@]3(C)[C@H](CC[C@@H]4[C@@]5(C)CC[C@H](O)C(C)(C)[C@@H]5CC[C@]43C)[C@@H]12 [Compound 29, N-[3β,30-Dihydroxy-lup-20(29)-en-28-oyl]-8-aminooctanoic acid]
CC50 (mock-infected MT-2 cell [1]): 40.7 µM | EC50 (HIV-1IIIB): 14.8 µM

C=C(C)[C@@H]1CC[C@]2(C(=O)N[C@@H](CC(C)C)C(=O)O)CC[C@]3(C)[C@H](CC[C@@H]4[C@@]5(C)CC[C@H](NC(=O)CC(C)(C)C(=O)O)C(C)(C)[C@@H]5CC[C@]43C)[C@@H]12 [Compound 36, N′-[3β-(3′,3′-Dimethylsuccinyl)-lup-20(29)-en-28-oyl]-leucine]
CC50 (mock-infected MT-2 cell [2]): 35.9 µM | melting point: 248 to 250 °C | EC50 (HIV-1IIIB; Human immunodeficiency virus 1, MT2): 13.2 µM

C=C(C)[C@@H]1CC[C@]2(C(=O)N3CCC(CCCC(=O)O)CC3)CC[C@]3(C)[C@H](CC[C@@H]4[C@@]5(C)CC[C@H](OC(=O)CC(C)(C)C(=O)O)C(C)(C)[C@@H]5CC[C@]43C)[C@@H]12 [Compound 39, N-[3β-O-(3′,3′-Dimethylsuccinyl)-lup-20(29)-en-28-oyl]-4-piperidine butyric acid]
CC50 (mock-infected MT-2 cell [2]): 20.8 µM | EC50 (HIV-1IIIB): 0.015 µM

C=C(C)[C@@H]1CC[C@]2(C(=O)N3CCC(CCCC(=O)O)CC3)CC[C@]3(C)[C@H](CC[C@@H]4[C@@]5(C)CC[C@H](OC(=O)CCC(C)(C)C(=O)O)C(C)(C)[C@@H]5CC[C@]43C)[C@@H]12 [Compound 40, N-[3β-O-(4′,4′-Dimethylglutaryl)-lup-20(29)-en-28-oyl]-4-piperidine butyric acid]
CC50 (mock-infected MT-2 cell [2]): 33.2 µM | EC50 (HIV-1IIIB): 0.23 µM

C=C(C)[C@@H]1CC[C@]2(C(=O)N3CCC(CCCC(=O)NC)CC3)CC[C@]3(C)[C@H](CC[C@@H]4[C@@]5(C)CC[C@H](OC(=O)CC(C)(C)C(=O)O)C(C)(C)[C@@H]5CC[C@]43C)[C@@H]12 [Compound 45]
CC50 (mock-infected MT-4 cell): > 10 µM | CC50 (mock-infected MT-2 cell [2]): 33.3 µM | EC50 (HIV-1NL4-3; [3]): 0.24 µM | EC50 (HIV-1IIIB): 0.067 µM

C=C(C)[C@@H]1CC[C@]2(C(=O)N3CCC(CCCC(=O)N4CCOCC4)CC3)CC[C@]3(C)[C@H](CC[C@@H]4[C@@]5(C)CC[C@H](OC(=O)CC(C)(C)C(=O)O)C(C)(C)[C@@H]5CC[C@]43C)[C@@H]12 [Compound 46, N′-[N-[3β-O-(3′,3′-Dimethylsuccinyl)-lup-20(29)-en-28-oyl]-4-piperidine-butanoyl]-morpholine]
CC50 (mock-infected MT-4 cell): 8.8 µM | CC50 (mock-infected MT-2 cell [2]): 19.2 µM | EC50 (HIV-1NL4-3; [3]): 0.07 µM | EC50 (HIV-1IIIB): 0.011 µM

C=C(C)[C@@H]1CC[C@]2(C(=O)N3CCC(CCCC(=O)NCCN4CCOCC4)CC3)CC[C@]3(C)[C@H](CC[C@@H]4[C@@]5(C)CC[C@H](OC(=O)CC(C)(C)C(=O)O)C(C)(C)[C@@H]5CC[C@]43C)[C@@H]12 [Compound 47, N′-[N-[3β-O-(3′,3′-Dimethylsuccinyl)-lup-20(29)-en-28-oyl]-4-piperidine-butanoyl]-2-aminoethylmorpholine]
CC50 (mock-infected MT-4 cell): 8.5 µM | CC50 (mock-infected MT-2 cell [2]): 17.3 µM | EC50 (HIV-1NL4-3; [3]): 0.035 µM | EC50 (HIV-1IIIB): 0.007 µM

C=C(C)[C@@H]1CC[C@]2(C(=O)N3CCC(CCCC(=O)NCCCN4CCOCC4)CC3)CC[C@]3(C)[C@H](CC[C@@H]4[C@@]5(C)CC[C@H](OC(=O)CC(C)(C)C(=O)O)C(C)(C)[C@@H]5CC[C@]43C)[C@@H]12 [Compound 48, N′-[N-[3β-O-(3′,3′-Dimethylsuccinyl)-lup-20(29)-en-28-oyl]-4-piperidine-butanoyl]-3-aminopropylmorpholine]
CC50 (mock-infected MT-4 cell): 8.6 µM | CC50 (mock-infected MT-2 cell [2]): 18.5 µM | EC50 (HIV-1NL4-3; [3]): 0.031 µM | EC50 (HIV-1IIIB): 0.006 µM
